Values of other authors in US20090117584A1, “Non-Human mammalian Arthritis Model Featuring Human Antibodies Against Citrul-Linated Proteins” (GENMAB A/S, priority 2005, published 2009).

Columns and labels:
human IgG = details: SCID mice engrafted with human RA tissue, treated with T-614
anti-CCP antibodies = details: RA patients; anti-TNFα therapy in combination with low-dose methotrexate

Compound	levels of human IgG in SCID-HuRag mice (human IgG)	anti-CCP titers (anti-CCP antibodies)
CS(=O)(=O)Nc1cc2occ(NC=O)c(=O)c2cc1Oc1ccccc1 [T-614]	decreases	
infliximab: anti-TNFalpha therapy, named in the cited title		decrease
